Measured values from patent publication US12522610B2 (priority 2018, dated 2026).
≈ marks a conversion by molar mass, not a printed value. Read-outs that look alike come from different tables or passages of the source.

Key:
physchem = conditions: 55 °C, aqueous with cosolvent or surfactant or cyclodextrin, thermodynamic from solid
[1] = salt forms; dissolution medium, 55° C. water bath, 60 rpm; Table 4

Row | Compound | solubility (physchem) | solubility [1]
1 | COC12CC[C@@]3(C[C@@H]1[C@](C)(O)C(C)(C)C)C1Cc4ccc(O)c5c4[C@@]3(CCN1CC1CC1)[C@H]2O5 [Buprenorphine free base] | 1180 µg/mL (≈ 2510 µM) | –
2 | Buprenorphine acetate-hydrochloride salt | – | 1716 µg/mL
